Source: patent publication US10787643B2, “Methods, kits, and compositions for stem cell self-renewal” (Stowers Institute for Medical Research, priority 2007, dated 2020)

Legend:
[1] = test system: LSK Flk2− cells; test: Ex vivo culture of sorted LSK Flk2− cells with PTEN and/or GSK-3β inhibitors; assay type: cell-based, mouse; conditions: for Expansion of LSK cells compared to control (photographs): 17 and 23 days culture, 1 μM CHIR99021, 200 nM BpV(pic); for Expansion of LSK Flk2− cells compared to media without either inhibitor: 28 days culture, inhibitor added individually
Description: LSK or LSK Flk2^− cells were sorted into 96-well U-bottom tissue culture plates at 100 cells/well with 200 μl media/well. Cells were incubated at 37° C., 5% O2, 5% CO2 (balance N2) for the indicated number of days. One-half total volume of media (see Table 1, below for the base media) was carefully pipetted from the top and replaced with fresh media every other day.
One hundred LSK Flk2^− cells were sorted from wild-type (C57Bl/6) mice and cultured in (1) media, (2) media+1 μM CHIR99021 (a GSK-3β inhibitor, a gift from Dr. Sheng Ding), (3) media+200 nM Dipotassium Bis-peroxo(picolinato)oxovanadate (BpV(pic), a PTEN inhibitor, available from Calbiochem, Cat. No. 203705), (4) media+1 μM CHIR99021+200 nM BpV(pic), (5) media+200 nM Shikonin (also a PTEN inhibitor, available from Calbiochem, Cat. No. 565850), and (6) media+200 nM Shikonin+1 μM CHIR99021. […] Cells were cultured as described above. […] Cells were examined at 17 days of culture (FIG. 3B, original magnification 100×) and 23 days (FIG. 3C, original magnification 40×).
LSK Flk2^− cells at 28 days culture in the indicated media conditions were examined (FIG. 3D, original magnification 200×).
FACS analysis of 28 day LSK Flk2^− cells cultured in media+BpV(pic)+CHIR99021 (FIG. 3E) was performed. Cells were pre-gated on live, lineage negative cells.
Fold expansion of LSK Flk2^− cells after 28 days culture in (1) media, (2) media+BpV(pic), (3) media+CHIR99021, and (4) media+CHIR99021+BpV(pic) were analyzed.
Cells cultured for 9 days in (1) media, (2) media+BpV(pic) (200 nM), (3) media+CHIR99021 (100 nM), and (4) media+CHIR99021 (100 nM)+BpV(pic) (200 nM) were re-sorted for LSK Flk2^− cells, and fold expansion of LSK Flk2^− cells after 9 days culture in the indicated conditions was determined (FIG. 3I).
FACS analysis was performed on 9 day LSK Flk2^− cells cultured in media+BpV(pic) (200 nM)+CHIR99021 (100 nM) (FIG. 3J). Cells were pre-gated on live, lineage negative cells.

[2] = test system: LSK Flk2− cells; test: Transplantation of cultured sorted LSK Flk2− cells into lethally irradiated CD45.1+ recipient mice with competitor cells; assay type: in vivo, mouse; conditions: 1000 re-sorted LSK Flk2− cells from 28 day cultures; peripheral blood at 4 weeks post-transplant
Description: Cells were harvested from the wells prior to transplantation by pipetting up and down several times before transferring to a fresh tube. Residual was then collected by adding more media and repeating. Cells were washed in DMEM (Invitrogen, Cat. No. 31053) without phenol red and added to the appropriate number of whole bone marrow rescue cells from a congenic donor (for 200,000 rescue cells+1,000 re-sorted LSK Flk2^− cells (FIGS. 3F-3H) or the non-adherent product of 10 days culture of 100 LSK Flk2^− cultured cells (FIGS. 3I-3K) per mouse as indicated). […]
Repopulation was measured at 4 weeks post-transplant by collection of periperal blood, red blood cell lysis, and staining of CD45.1 (recipient) compared to CD45.2 (donor) engraftment using antibodies purchased from eBiosciences (FITC conjugated CD45.2 (Cat. No. 11-0454-85) and PE-Cy5 conjugated CD45.1 (Cat. No. 15-0453-82)). […] Multi-lineage reconstitution was determined by CD3, B220 (for lymphoid) and Gr1, Mac-1 (for myeloid), as described above.
Cells cultured for 28 days in (1) media, (2) media+BpV(pic), (3) media+CHIR99021 and (4) media+CHIR99021 (1 μM)+BpV(pic) (200 nM) were re-sorted for LSK Flk2^− cells. […] At 4 weeks post-transplant, peripheral blood was analyzed for donor (FIG. 3G) and multi-lineage (FIG. 3H) engraftment. […]

[3] = test system: LSK Flk2− cells; test: Bone marrow MNC culture in HSC expansion media with CHIR99021 and PI3K inhibitor, FACS for LSK Flk2− expansion (FIG. 21); assay type: cell-based, mouse; conditions: for Expansion of LSK Flk2− cells: bone marrow MNCs cultured 10 days in ST media, 250 nM CHIR99021 or indicated concentrations of NVP-BEZ235
Description: Bone marrow MNCs were cultured for 10 days in an HSC expansion media with and without 250 nM CHIR99021, along with the indicated concentrations of PI3K inhibitor ([…]. et al. Identification and characterization of NVP-BEZ235, a new orally available dual phosphatidylinositol 3-kinase/mammalian target of rapamycin inhibitor with potent in vivo antitumor activity. (Molecular cancer therapeutics 7, 1851-1863 (2008)), and then subjected to FACS analysis to determine expansion of LSK Flk2^- cells. The inventors have developed a defined culture system utilizing only two cytokines, stem cell factor (SCF) and thrombopoietin (Tpo) (ST media), which have been shown previously to support HSC expansion in vitro (Zhang, […]. Murine hematopoietic stem cells change their surface phenotype during ex vivo expansion. Blood 105, 4314-4320 (2005)). […] Also, the ability of CHIR99021 to enhance expansion was negated by PI3K inhibition (FIG. 21).

[4] = test system: LSK Flk2− cells; test: Competitive repopulation after 14 days ex vivo expansion of sorted HSCs or unsorted MNCs with or without CHIR99021; assay type: in vivo, mouse; conditions: long-term engraftment, competitor cells present
Description: For the experimental results shown in FIG. 13A, sorted LSK Flk2^− cells and unsorted MNCs containing a known quantity of LSK Flk2^− cells (CD45.2^+) were cultured for 14 days in ST media with and without CHIR99021. The cultured product of 100 sorted or 5 unsorted LSK Flk2^− cells per mouse were transplanted into lethally irradiated recipients (CD45.1^+). 5 freshly isolated, unsorted LSK Flk2^− cells per mouse were transplanted into a separate group. 1×10^5 freshly isolated CD45.1^+ competitor/radioprotective cells were also added per mouse. Peripheral blood analysis of recipients at 16 weeks post-transplant depicts % chimerism.
For the experiments set forth in this Example, a particular HSC expansion media was used. […]
Bone marrow cells were harvested from C57Bl/6 (CD45.2) mice and made into a single cell suspension by gently drawing through a 22 g needle several times. […] Cells were counted and a fraction of mononuclear cells (MNCs) were stained for lineage markers using CD3, CD4, CD8, B220, IgM, Mac-1, Gr1, and Ter119 antibodies along with Kit, Sca-1, and Flk2 for mouse HSC analysis or CD34 and CD38 for human HSC analysis. […] Frequency of putative HSCs (lineage negative, Sca-1^+, Kit^+, […] for mouse or CD34^+, CD38^− cells for human) was determined by analyzing >3×10^5 cells per sample independently in triplicate. […]

[5] = test system: LSK Flk2− cells; test: Transplantation of ex vivo expanded MNCs without competitor/radioprotective cells, with serial (secondary) transplantation; assay type: in vivo, mouse
Description: For this experiment, MNCs with a known quantity of putative HSCs were cultured with and without CHIR99021 for 14 days. After 14 days, the cellular product of these cultures was transplanted into lethally-irradiated recipients at a dosage corresponding to an original input into culture of MNCs containing 5 LSKF^− cells per mouse. Freshly isolated MNCs containing either 5 or 500 LSKF− cells were also transplanted into 2 additional lethally irradiated groups of mice. No rescue/competitor bone marrow cells were included.
At 16 weeks post-transplant, mice transplanted with MNCs containing 5 or 500 LSKF^− cells freshly isolated or cultured for 14 days described in FIGS. 6A-6D were sacrificed and bone marrow isolated. A secondary transplantation was performed on new groups of lethally irradiated mice by transplanting 1×10^6 bone marrow cells from the original transplant group per mouse. At 4 weeks post-transplant, peripheral blood was collected from each transplant recipient and donor-derived repopulation was determined.

Compound: Cc1c[nH]c(-c2cnc(NCCNc3ccc(C#N)cn3)nc2-c2ccc(Cl)cc2Cl)n1 [CHIR99021]
- Expansion of LSK cells compared to control (photographs) [1]: greater expansion
- Expansion of LSK Flk2− cells compared to media without either inhibitor [1]: significant expansion
- Mice showing >1% engraftment [2]: 4/8
- Expansion of LSK Flk2− cells [3]: increased the expansion
- Average repopulation ([4]; 100 sorted putative HSCs cultured 14 days with CHIR99021 (250 nM)): 12.3%
- Average repopulation ([4]; unsorted MNC cultures, 14 days with CHIR99021 (250 nM)): 64.8%
- Donor reconstitution ([5]; 16 weeks post-secondary transplant, MNCs containing 5 LSK Flk2− cells expanded 14 days in ST media with CHIR99021, no competitor cells): 90.6±4.8%
- Long-term repopulation equivalent to a greater dose of fresh, unexpanded cells ([5]; 16 weeks post-secondary transplantation, expanded MNCs with 5 putative HSCs vs fresh MNCs with 500): 100 fold

Compound: Cn1c(=O)n(-c2ccc(C(C)(C)C#N)cc2)c2c3cc(-c4cnc5ccccc5c4)ccc3ncc21 [NVP-BEZ235]
- Ability of CHIR99021 to enhance expansion of LSK Flk2− cells ([3]; PI3K inhibitor added together with 250 nM CHIR99021, 10 days): negated
- Expansion of LSK Flk2− cells [3]: decreased the ability of LSK Flk2^− cells to expand in a dose-dependent manner

Compound: Dipotassium Bis-peroxo(picolinato)oxovanadate [BpV(pic)]
- Expansion of LSK cells compared to control (photographs) [1]: greater expansion
- Expansion of LSK Flk2− cells compared to media without either inhibitor [1]: significant expansion
- Mice showing >1% engraftment [2]: 0/10
